B1: Periostin: extracellular matrix protein that binds to cell surface receptors belonging to the integrin family (protein, UniProt Q15063 22-836, looked up)
Periostin: NNHYDKILAHSRIRGRDQGPNVCALQQILGTKKKYFSTCKNWYKKSICGQKTTVLYECCPGYMRMEGMKGCPAVLPIDHVYGTLGIVGATTTQRYSDASKLREEIEGKGSFTYFAPSNEAWDNLDSDIRRGLESNVNVELLNALHSHMINKRMLTKDLKNGMIIPSMYNNLGLFINHYPNGVVTVNCARIIHGNQIATNGVVHVIDRVLTQIGTSIQDFIEAEDDLSSFRAAAITSDILEALGRDGHFTLFAPTNEAFEKLPRGVLERIMGDKVASEALMKYHILNTLQCSESIMGGAVFETLEGNTIEIGCDGDSITVNGIKMVNKKDIVTNNGVIHLIDQVLIPDSAKQVIELAGKQQTTFTDLVAQLGLASALRPDGEYTLLAPVNNAFSDDTLSMDQRLLKLILQNHILKVKVGLNELYNGQILETIGGKQLRVFVYRTAVCIENSCMEKGSKQGRNGAIHIFREIIKPAEKSLHEKLKQDKRFSTFLSLLEAADLKELLTQPGDWTLFVPTNDAFKGMTSEEKEILIRDKNALQNIILYHLTPGVFIGKGFEPGVTNILKTTQGSKIFLKEVNDTLLVNELKSKESDIMTTNGVIHVVDKLLYPADTPVGNDQLLEILNKLIKYIQIKFVRGSTFKEIPVTVYTTKIITKVVEPKIKVIEGSLQPIIKTEGPTLTKVKIEGEPEFRLIKEGETITEVIHGEPIIKKYTKIIDGVPVEITEKETREERIITGPEIKYTRISTGGGETEETLKKLLQEEVTKVTKFIEGGDGHLFEDEEIKRLLQGDTPVRKLQANKKVQGSRRRLREGRSQ

How the values were obtained:
[1] = tested on: scratching behaviors in FADS mice; assay: Scratching behaviors in FADS mice upon single systemic administration of αvβ3 integrin inhibitors; type: in vivo, mouse (FADS, Nestin-cre/Ikk2ff); settings: for % Change from baseline in the number of scratchings (mean ± standard error): single, 60 minutes after administration vs before administration
Description: Nestin-cre transgenic mice were crossed with IKK2^ff mice to prepare Nestin-cre/Ikk2^ff mice specifically lacking IKK2 in their facial skin fibroblasts (Nunomura S, et al. J Invest Dermatol. 139:1274-1283, 2019). These mice inevitably develop atopic dermatitis-like rash limited to the face and intense itchy symptoms, and were therefore designated as Facial Atopic Dermatitis with Scratching (FADS) mice. […] For evaluation of the prophylactic or therapeutic agent of the present invention, FADS mice at 3 to 4 weeks of age or older were used because of showing spontaneous scratching behaviors. It should be noted that in this Example section, the above compound of formula (I) (more particularly “CP4715”) was used as the prophylactic or therapeutic agent of the present invention.
FADS mice were acclimated for 20 minutes to the environment of a recording cage, and then recorded with a video camera. The recorded videos were replayed, and scratching behaviors were counted assuming that hind paw scratching to the face and the subsequent movement of toe licking or paw lowering to the ground were regarded as one cycle of scratching behavior.
(§1) Prior to the administration of the above αvβ3 integrin inhibitors, FADS mice were recorded for 60 minutes with a video camera and then allowed to rest for 15 minutes. The compounds except for GLPG-0187 were each dissolved at 89.5 mM in a diluent (physiological saline containing 50% DMSO and 89.5 mM HCL), from which an amount corresponding to 53.7 μmol/kg per mouse was then taken and diluted with 0.3 mL of PBS, and then administered intraperitoneally. […] Mice administered with 0.3 mL of PBS containing an equal amount of the diluent as calculated based on the body weight were used as a control group.
The mice were recorded for 60 minutes with a video camera immediately after administration of the above αvβ3 integrin inhibitors. The number of scratchings before administration was used as a baseline, and % change from the baseline after administration was calculated for each compound. For statistical analysis, paired t-test was used. A P-value of less than 0.05 was considered to be statistically significant. The effect of an inhibitor whose mean change from the baseline was −65% or more at a P-value of less than 0.01 was expressed as “++”; the effect of an inhibitor whose mean change from the baseline was −60% or less at a P-value of less than 0.05 was expressed as “+”; and the effect of an inhibitor whose mean change from the baseline was −60% or less at a P-value of 0.05 or higher was expressed as “−.”

integrin αvβ3 [2] = molecular target: T1, integrin αvβ3 (Homo sapiens, UniProt P05106+P06756); assay: Inhibition of periostin-dependent adhesion of SW480 cells expressing integrin αvβ3; type: cell-based; settings: immobilized recombinant human periostin, FIG. 6; for IC50: SW480 cells expressing human integrin β3, compounds at 0.001-1 μM, read-out: 50% inhibition concentration (IC50 value) for cell adhesion inhibitory activity; for cell adhesion inhibitory effect (in words): SW480 cells expressing integrin αvβ3
T1 construct: SW480 cells, a human colon cancer cell line not expressing integrin β3; expressed in transfected cells; host or cells: SW480 cells (human colon cancer) stably expressing human integrin β3
Procedure: For use in cell adhesion experiments, SW480 cells, a human colon cancer cell line not expressing integrin β3, were genetically engineered to stably express human integrin β3 (Nanri Y, et al. Am J Respir Cell Mol Biol. 62:204-216, 2020). The compounds shown in Table 1 were examined for their inhibitory activity against adhesion between integrin αvβ3 and periostin according to the following procedures. First, a 96-well plate was treated with 10 μg/mL recombinant human periostin (Bio-Techne) at 4 °C for 16 hours to immobilize periostin. The SW480 cells expressing integrin αvβ3 (5×10^4 cells) were reacted at room temperature for 15 minutes with the above compounds at 0.001, 0.01, 0.1 and 1 μM in serum-free DMEM (Dulbecco's Modified Eagle Medium) containing 0.5% bovine serum albumin and 0.25 mM MnCl2. A group receiving no compound was used as a control. The reacted cell suspensions were added to separate wells of the above human periostin-immobilized plate, and the plate was centrifuged at 10×g for 5 minutes and then cultured at 37 °C for 60 minutes. Then, after the adhered cells were washed to remove unbound cells, the adhered cells were fixed with 1% formaldehyde and stained with 0.5% crystal violet. The fixed and stained cells were solubilized with 0.2% Triton X-100 and measured for absorbance at 595 nm. The absorbance of the control (i.e., the group receiving no compound) was set to 0% inhibition. […] Cell adhesion in this test system is periostin-dependent, and a compound inhibiting this cell adhesion can be referred to as a periostin receptor antagonist.

integrin αvβ3 [3] = settings: cited from earlier work
integrin αvβ3 [4] = settings: Nanri Y, et al. 2020; cited from earlier work
[5] = Solubility in the diluent; type: physicochemical; settings: diluent: physiological saline containing 50% DMSO and 89.5 mM HCl
Procedure: as §1

scratching behaviors = settings: intracutaneous or subcutaneous administration; Non-patent Document 2; cited from earlier work

T1 sequence (P06756 31-889 limits assumed): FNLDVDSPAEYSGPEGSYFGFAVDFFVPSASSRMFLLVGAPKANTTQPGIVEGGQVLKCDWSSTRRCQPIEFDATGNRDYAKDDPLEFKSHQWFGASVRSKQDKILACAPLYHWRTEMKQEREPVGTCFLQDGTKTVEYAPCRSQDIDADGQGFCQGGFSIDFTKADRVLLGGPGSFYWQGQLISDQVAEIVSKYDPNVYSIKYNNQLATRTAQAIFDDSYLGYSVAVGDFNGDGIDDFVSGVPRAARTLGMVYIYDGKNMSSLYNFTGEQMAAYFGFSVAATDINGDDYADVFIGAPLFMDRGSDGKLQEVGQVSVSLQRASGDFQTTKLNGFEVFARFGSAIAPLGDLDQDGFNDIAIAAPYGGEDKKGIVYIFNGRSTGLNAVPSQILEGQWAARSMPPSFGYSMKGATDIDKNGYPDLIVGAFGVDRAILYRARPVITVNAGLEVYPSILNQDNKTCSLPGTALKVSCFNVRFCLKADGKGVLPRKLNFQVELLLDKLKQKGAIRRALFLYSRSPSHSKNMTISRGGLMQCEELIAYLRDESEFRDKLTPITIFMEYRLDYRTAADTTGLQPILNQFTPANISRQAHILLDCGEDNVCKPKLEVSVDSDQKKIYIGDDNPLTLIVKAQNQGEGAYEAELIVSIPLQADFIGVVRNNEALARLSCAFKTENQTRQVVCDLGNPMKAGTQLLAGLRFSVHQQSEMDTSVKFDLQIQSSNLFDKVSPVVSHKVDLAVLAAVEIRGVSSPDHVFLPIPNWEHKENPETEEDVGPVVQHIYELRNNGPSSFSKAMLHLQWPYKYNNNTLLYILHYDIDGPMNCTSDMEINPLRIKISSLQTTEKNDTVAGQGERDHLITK
T1 sequence (P06756 891-1048 partner limits assumed): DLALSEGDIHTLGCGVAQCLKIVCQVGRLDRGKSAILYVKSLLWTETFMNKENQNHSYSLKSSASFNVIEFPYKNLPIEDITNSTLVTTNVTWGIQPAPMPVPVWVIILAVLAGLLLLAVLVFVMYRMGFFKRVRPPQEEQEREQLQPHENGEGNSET
T1 sequence (P05106 27-788): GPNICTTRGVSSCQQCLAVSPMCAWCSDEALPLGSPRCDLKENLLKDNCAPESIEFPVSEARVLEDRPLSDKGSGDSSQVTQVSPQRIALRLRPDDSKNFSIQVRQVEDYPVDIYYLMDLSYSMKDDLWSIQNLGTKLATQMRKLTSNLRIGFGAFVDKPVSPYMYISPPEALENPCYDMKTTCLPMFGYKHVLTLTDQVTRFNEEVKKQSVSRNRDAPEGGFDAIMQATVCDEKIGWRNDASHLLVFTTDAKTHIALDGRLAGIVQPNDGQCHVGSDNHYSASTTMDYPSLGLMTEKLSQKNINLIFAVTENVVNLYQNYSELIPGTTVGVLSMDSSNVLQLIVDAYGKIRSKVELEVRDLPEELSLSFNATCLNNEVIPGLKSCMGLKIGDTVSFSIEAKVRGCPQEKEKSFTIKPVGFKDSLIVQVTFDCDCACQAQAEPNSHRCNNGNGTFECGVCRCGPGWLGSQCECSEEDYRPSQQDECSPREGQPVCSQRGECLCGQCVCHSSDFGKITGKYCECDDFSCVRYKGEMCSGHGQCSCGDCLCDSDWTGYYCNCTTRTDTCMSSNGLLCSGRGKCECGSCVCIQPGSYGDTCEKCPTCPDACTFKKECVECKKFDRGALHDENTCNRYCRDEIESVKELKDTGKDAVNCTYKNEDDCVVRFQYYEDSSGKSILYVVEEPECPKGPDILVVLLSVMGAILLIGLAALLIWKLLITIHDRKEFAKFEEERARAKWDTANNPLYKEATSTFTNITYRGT

Molecule	% Change from baseline in the number of scratchings (mean ± standard error) ([1]; 53.7 μmol/kg i.p.) [%]	grade of effect on % change from the baseline in the number of scratchings ([1]; single i.p., 53.7 μmol/kg (GLPG-0187 5.37 μmol/kg), paired t-test)	IC50 (integrin αvβ3 [2]) [nM]	cell adhesion inhibitory effect (in words) (integrin αvβ3 [2])	inhibition of binding between integrin αvβ3 and vitronectin (integrin αvβ3 [3])	inhibition of binding between integrin αvβ3 and periostin (integrin αvβ3 [4])	% Change from baseline in the number of scratchings (mean ± standard error) ([1]; 5.37 μmol/kg i.p.) [%]	solubility [5]	induction of scratching behaviors (scratching behaviors)
O=C(NC[C@H](NS(=O)(=O)c1ccccc1)C(=O)O)c1ccc(N2CCC[C@H](NC3=NCCCN3)C2)cc1 [CP derivative 6, (S)-2-(Phenylsulfonamido)-3-(4-((S)-3-((1,4,5,6-tetrahydropyrimidin-2-yl)amino)piperidin-1-yl)benzamido)propanoic acid]	−77.8 ± 7.9	++ (mean change from the baseline was −65% or more at a P-value of less than 0.01)	≤ 1	high	inhibit binding	inhibit binding	–	–	–
COc1ccc(S(=O)(=O)N[C@@H](CNc2nc(C)nc(N3CCC(c4ccc5c(n4)NCCC5)CC3)c2C)C(=O)O)cc1 [GLPG-0187, (S)-3-((2,5-dimethyl-6-(4-(5,6,7,8-tetrahydro-1,8-naphthyridin-2-yl)piperidin-1-yl)pyrimidin-4-yl)amino)-2-((4-methoxyphenyl)sulfonamido)propanoic acid]	–	–	≤ 1	high	–	–	−38.9 ± 31.2	low solubility	–
B1	–	–	–	–	–	–	–	–	induce scratching behaviors

Source: patent US20260355192A1, “PROPHYLACTIC OR THERAPEUTIC AGENT FOR PERIOSTIN-MEDIATED DISEASE AND PRURITUS ASSOCIATED THEREWITH” (SAGA UNIVERSITY, priority 2022, published 2026)
